Data taken from ChEMBL document CHEMBL1138419 (Bioorg Med Chem Lett, 2007).
Converted amounts (≈) assume the structure as drawn.

Experiments:
[1] = target: cGMP-specific 3',5'-cyclic phosphodiesterase (Bos taurus, UniProt Q28156); assay: Inhibition of bovine PDE5 after 24 hrs by HTRF
[2] = Aqueous solubility in PBS at pH 7.4; assay type: physicochemical

IC50 [1] [nM] | solubility [2] [µM] | SMILES
91 | 2.4 (≈ 1.08 µg/mL) | O=C1[C@H]2Cc3c([nH]c4ccccc34)[C@@H](c3ccc4c(c3)OCO4)N2C(=O)CN1c1ccccc1
53 | 25 (≈ 11.3 µg/mL) | O=C1[C@H]2Cc3c([nH]c4ccccc34)[C@@H](c3ccc4c(c3)OCO4)N2C(=O)CN1c1cncnc1
68 | – | Cc1cccc(N2CC(=O)N3[C@H](c4ccc5c(c4)OCO5)c4[nH]c5ccccc5c4C[C@@H]3C2=O)c1
18 | – | O=C1[C@H]2Cc3c([nH]c4ccccc34)[C@@H](c3ccc4c(c3)OCO4)N2C(=O)CN1c1ccsc1
122 | – | O=C1[C@H]2Cc3c([nH]c4ccccc34)[C@@H](c3ccc4c(c3)OCO4)N2C(=O)CN1c1ccc([N+](=O)[O-])cc1
– | 9.7 (≈ 3.78 µg/mL) | CN1CC(=O)N2[C@H](c3ccc4c(c3)OCO4)c3[nH]c4ccccc4c3C[C@@H]2C1=O
377 | – | O=C1[C@H]2Cc3c([nH]c4ccccc34)[C@@H](c3ccc4c(c3)OCO4)N2C(=O)CN1c1ccc(C(F)(F)F)cc1
134 | – | O=C1[C@H]2Cc3c([nH]c4ccccc34)[C@@H](c3ccc4c(c3)OCO4)N2C(=O)CN1c1ccc(Cl)cc1
57 | – | O=C1[C@H]2Cc3c([nH]c4ccccc34)[C@@H](c3ccc4c(c3)OCO4)N2C(=O)CN1c1cccs1
16 | – | COc1ccc(N2CC(=O)N3[C@H](c4ccc5c(c4)OCO5)c4[nH]c5ccccc5c4C[C@@H]3C2=O)cc1
141 | – | O=C1[C@H]2Cc3c([nH]c4ccccc34)[C@@H](c3ccc4c(c3)OCO4)N2C(=O)CN1c1cccc(Cl)c1
28 | 33 (≈ 14.9 µg/mL) | O=C1[C@H]2Cc3c([nH]c4ccccc34)[C@@H](c3ccc4c(c3)OCO4)N2C(=O)CN1c1cccnc1
152 | – | CCCCc1ccc(N2CC(=O)N3[C@H](c4ccc5c(c4)OCO5)c4[nH]c5ccccc5c4C[C@@H]3C2=O)cc1
